Experimental data published in patent US4528375A, “Substituted 3,4-diamino-1,2,5-thiadiazoles having histamine H2 -receptor antagonist activity” (Bristol-Myers Company, priority 1984, dated 1985).

How the values were obtained:
gastric acid secretion = assay: Gastric Antisecretory Activity in the Gastric Fistula Rat; assay type: in vivo, Male Long Evans rats; settings: sc; for Potency Ratio (cimetidine = 1.0): gastric fistula rat, relative to cimetidine
peptic ulcer disease = settings: clinical evaluation, Gray et al., Lancet, 1, 8001 (1977); cited from earlier work

Nc1nsnc1NCCCOc1cccc(CN2CCCC2)c1 [Example 4, 3-Amino-4-[3-(3-pyrrolidinomethylphenoxy)propylamino]-1,2,5-thiadiazole]
Potency Ratio (cimetidine = 1.0) (gastric acid secretion): 20

Cc1cc(CSCCNc2nsnc2N)sc1CN(C)C [Example 3, 3-Amino-4-{2-[(5-dimethylaminomethyl-4-methyl-2-thienyl)methylthio]ethylamino}-1,2,5-thiadiazole]
Potency Ratio (cimetidine = 1.0) (gastric acid secretion): ~ 7

CN/C(=N/CCSCc1nc[nH]c1C)NC#N [cimetidine, reference compound]
ED50 (gastric acid secretion; Rattus norvegicus, read-out: ED50 sc): 3.48 µmol/kg
effectiveness in the treatment of peptic ulcer disease (peptic ulcer disease): effective therapeutic agent in the treatment of peptic ulcer disease

CN(C)Cc1ccc(CSCCNc2nsnc2N)o1 [Example 2, 3-Amino-4-{2-[(5-dimethylaminomethyl-2-furyl)methylthio]ethylamino}-1,2,5-thiadiazole]
Potency Ratio (cimetidine = 1.0) (gastric acid secretion): 4.5

Nc1nsnc1NCCCOc1cccc(CN2CCCCC2)c1 [Example 1, 3-Amino-4-[3-(3-piperidinomethylphenoxy)propylamino]-1,2,5-thiadiazole]
Potency Ratio (cimetidine = 1.0) (gastric acid secretion): 37
